Measurements published in paper PMC9027910, “Synthesis and Antimycobacterial Evaluation of N-(4-(Benzyloxy)benzyl)-4-aminoquinolines” (Molecules, 2022).

Tests used:
[1] = Metabolic stability in rat liver microsomes; format: in vitro ADME; settings: for Metabolism rate class: rat microsomes, classes by Clint; for CLint scaled / half-life: rat, microsomes
Experimental: The experiment was carried out by the Center for Applied Mass Spectrometry (CEMSA), São Paulo, Brazil. In brief, the metabolic stability assay was performed in the presence of rat liver microsomes. Compounds were incubated at 37 °C in a buffered solution containing 1 mg/mL of microsomal protein and nicotinamide adenine dinucleotide […]. The reaction was stopped at different times using acetonitrile. The compound concentration was determined by HPLC–MS/MS at each incubation time (0, 5, 15, and 30 min) and the percentage remaining versus time curve was determined. Verapamil was used as an analytical control (data not shown).

in vitro = in vitro ADME; settings: for Papp at 5 h, 10 µM: PAMPA, pH 7.4
Experimental: The experiment was carried out by the Center for Applied Mass Spectrometry (CEMSA), São Paulo, Brazil. In brief, the Parallel Artificial Membrane Permeability Assay (PAMPA) assay consists of quantifying the test compound (via HPLC–MS/MS) after an incubation period, in two solutions separated by an artificial lipid membrane. The result of this test is expressed in units of diffusion rate (permeation). The procedure comprised the following steps: (1) preparing the membrane, which contains lipids, with specific activating solutions, creating a hydrophobic surface that simulates the intestinal epithelial cell; (2) adding the test compound at a concentration of 10 µM to the donor aqueous phase (buffered pH 7.4); (3) after 5 h at room temperature, an aliquot of the solution receptor (buffered at pH 7.4) is removed, in which the compound is transported by passive diffusion, for quantification by HPLC–MS/MS.

[2] = Cellular viability of HepG2 cells (MTT and neutral red uptake); format: cell-based; settings: human, HepG2 cells; MTT method, 72 h
Experimental: (§1) Cellular viability was determined using two distinct methods—3-(4,5-dimethylthiazol-2-yl)-2,5-diphenyl-2H-tetrazolium bromide (MTT) and neutral red uptake (NRU). The cell lines employed in the evaluation were Vero and HepG2 cells. Both cell lines were grown with Dulbecco’s Modified Eagle Medium (DMEM-Gibco, Grand Island, NY, USA) and supplemented with 10% fetal bovine serum by Invitrogen, 1% antibiotics (penicillin and streptomycin) by Gibco, and 0.1% fungizone by Gibco. For the MTT and NRU assays, Vero (2 × 10^3 cells/well) and HepG2 (4 × 10^3 cells/well) cells were seeded in 96-well culture plates and incubated overnight. The N-(4-(benzyloxy)benzyl)-4-aminoquinolines were diluted at concentrations of 3 µM using DMSO 1% and were incubated with the cell lines for 72 h at 37 °C. In the MTT investigation, after incubation for 72 h at 37 °C under 5% CO2, the cells were incubated with MTT solution (5 mg/mL, Sigma-Aldrich, St. Louis, MO, USA) for 4 h. The formazan crystals were solubilized in 100 µL of DMSO. An EZ Read 400 microplate reader (Biochrom, Cambridge, UK) was used to measure the absorbance at 570 nm. The mean absorbance of negative control wells was established as the maximum viability and the values of treated cells were calculated as the percentage of vehicle control (1% DMSO). The precipitated purple formazan crystals were directly equivalent to the number of live cells with active mitochondrial metabolism. In the NRU investigation, after 72 h of cell incubation, PBS was used to wash the cells and 200 µL of neutral red dye solution (25 µg/mL, Sigma-Aldrich, St. Louis, MO, USA) prepared in serum-free medium was added to the plate and incubated for 3 h at 37 °C under 5% CO2. Cells were washed with PBS followed by the addition of 100 µL of desorb solution (ethanol/acetic acid/water, 50:1:49) for 30 min with smooth homogenization to extract neutral red dye from the viable cells. An EZ Read 400 microplate reader was operated to measure the absorbance at 562 nm, and the cell viability was attributed as a percentage, considering the vehicle control cell (1% DMSO) as maximum cell viability.

HepG2 cells = assay: as above; format: cell-based; settings: for HepG2 cell viability in words: 72 h at concentrations similar to MIC, MTT and neutral red; for CC50: neutral red method, 72 h
Experimental: as §1

[3] = Cellular viability of Vero cells (MTT and neutral red uptake); format: cell-based; settings: African green monkey, Vero cells; MTT method, 72 h
Experimental: as §1

Vero cells = assay: as above; format: cell-based; settings: for Vero cell viability in words: 72 h at concentrations similar to MIC, MTT and neutral red; for CC50: neutral red method, 72 h
Experimental: as §1

[4] = format: physicochemical; settings: buffer, 24 h, 10 µM
Experimental: The experiment was carried out by the Center for Applied Mass Spectrometry (CEMSA), São Paulo, Brazil. In brief, the test compounds (10 µM) were incubated at 37 °C for 24 h in the presence of pH-controlled buffer solution at pH 1.2 (simulating the pH of the stomach—0.1 M HCl), pH 7.4 (simulating plasma pH—phosphate buffer) and pH 9.1 (simulating intestinal pH—0.1 M NH4HCO3). Afterward, compounds were quantified by HPLC–MS/MS. Alprenolol drug was used as an analytical control (data not shown). The results were presented as the percentage, comparing the signal at time zero of the assay (100%) with the signal produced by concentrations after the incubation period.

M. tuberculosis H37Rv = assay: Minimum inhibitory concentration (resazurin microplate); format: cell-based, Mycobacterium tuberculosis; settings: Mycobacterium tuberculosis; M. tuberculosis H37Rv; 7 days + 48 h resazurin; highest value of three assays

Row | SMILES | Metabolism rate class [1] | CLint scaled [1] [mL/min/kg] | half-life [1] [min] | Passive permeability (PAMPA) in words (in vitro) | Papp at 5 h, 10 µM (in vitro) [×10⁻⁶ cm/s] | CC50 at 72 h [2] [nM] | HepG2 cell viability in words (HepG2 cells) | CC50 (HepG2 cells) [nM] | CC50 at 72 h [3] [nM] | Vero cell viability in words (Vero cells) | CC50 (Vero cells) [nM] | melting point [°C] | Chemical Stability pH 1.2, remaining compound [4] [%] | Chemical Stability pH 7.4, remaining compound [4] [%] | Chemical Stability pH 9.1, remaining compound [4] [%] | MIC (M. tuberculosis H37Rv) [µM]
1 | Cc1cc(NCc2ccc(OCc3ccc(F)cc3)cc2)c2cc(Br)ccc2n1 [Compound 9o, N-(4-((4-fluorobenzyl)oxy)benzyl) 6-bromo-2-methylquinolin-4-amine] | high (high metabolism rates (Clint > 47)) | 56 | 7.9 | high permeability | 3 | > 3000 | not significantly altered | > 3000 | > 3000 | not significantly altered | > 3000 | 173 to 175 | 22.9 | 7.6 | 11.1 | 2.8
2 | Cc1cc(NCc2ccc(OCc3ccc(Cl)cc3)cc2)c2cc(Br)ccc2n1 [Compound 9n, N-(4-((4-chlorobenzyl)oxy)benzyl)-6-bromo-2-methylquinolin-4-amine] | moderate (moderate metabolism rates (47 ≤ Clint ≥ 16)) | 39 | 19 | low permeability | 0.3 | > 3000 | not significantly altered | > 3000 | > 3000 | not significantly altered | > 3000 | 184 to 186 | 14.9 | 5.0 | 13.8 | 2.7
